For 33 molecules, IC50 and EC50 results are on record in patent US8546420B2, “4, 5-ring annulated indole derivatives for treating or preventing of HCV and related viral infections” (Merck Sharp & Dohme Corp., priority 2006, dated 2013).

Test [1] has as its target T1, HCV NS5B polymerase (Hepatitis C virus genotype 1b, UniProt P26663).
T1 construct: A soluble C-terminal 21-amino acid truncated NS5B enzyme form; polyhistidine (C); made in house; host or cells: Escherichia coli
As to the kind of experiment: HCV NS5B Polymerase Inhibition Assay. Type of test: biochemical. The source says:
A chemically synthesized 75-mer version, designated DCoH75, whose sequence matches the 3′-end of D-RNA, and DCoH75ddC, where the 3′-terminal cytidine of DCoH75 is replaced by dideoxycytidine, were used for assaying the NS5B enzyme activity as described in Ferrari et al., 12th International Symposium on HCV and Related Viruses, P-306 (2005). A soluble C-terminal 21-amino acid truncated NS5B enzyme form (NS5B[…]CT21) was produced and purified from Escherichia coli as C-terminal polyhistidine-tagged fusion protein as described in Ferrari et al., J. Virol. 73:1649-1654 (1999). A typical assay contained 20 mM Hepes pH 7.3, 10 mM MgCl2, 60 mM NaCl, 100 μg/ml BSA, 20 units/ml RNasin, 7.5 mM DTT, 0.1 μM ATP/GTP/UTP, 0.026 μM CTP, 0.25 mM GAU, 0.03 μM RNA template, 20 μCi/ml [^33P]-CTP, 2% DMSO, and 30 or 150 nM NS5B enzyme. Reactions were incubated at 22° C. for 2 hours, then stopped by adding 150 mM EDTA, washed in DE81 filter plate in 0.5M di-basic sodium phosphate buffer, pH 7.0, and counted using Packard TopCount after the addition of scintillation cocktail. Polynucleotide synthesis was monitored by the incorporation of radiolabeled CTP. The effect of the Compounds of Formula (I) on the polymerase activity was evaluated by adding various concentrations of a Compound of Formula (I), typically in 10 serial 2-fold dilutions, to the assay mixture. The starting concentrations of the indole derivatives ranged from 200 μM to 1 μM. An IC50 value for the inhibitor, defined as the compound concentration that provides 50% inhibition of polymerase activity, was determined by fitting the cpm data to the Hill equation Y=100/(1+10^((Log IC50−X)*HillSlope)), where X is the logarithm of compound concentration, and Y is the % inhibition. Ferrari et al., 12th International Symposium on HCV and Related Viruses, P-306 (2005) described in detail this assay procedure. It should be noted that such an assay as described is exemplary and not intended to limit the scope of the invention. The skilled practitioner can appreciate that modifications including but not limited to RNA template, primer, nucleotides, NS5B polymerase form, buffer composition, can be made to develop similar assays that yield the same result for the efficacy of the compounds and compositions described in the invention.
NS5B polymerase inhibition data for selected Compounds of Formula (I) is provided below in Table 2, wherein the compound numbers correspond to the compound numbering set forth in the above specification.

Test [2] has as its system HCV replicon cells. As to the kind of experiment: Cell-Based HCV Replicon Assay. As to conditions: Hepatitis C virus, 72 h; replicon RNA level by real time PCR (Taqman), cells harvested on day 3. The procedure:
To measure cell-based anti-HCV activity of the a Compound of Formula (I), replicon cells were seeded at 5000 cells/well in 96-well collagen I-coated Nunc plates in the presence of the Compound of Formula (I). Various concentrations of a Compound of Formula (I), typically in 10 serial 2-fold dilutions, were added to the assay mixture, the starting concentration of the compound ranging from 250 μM to 1 μM. The final concentration of DMSO was 0.5%, fetal bovine serum was 5%, in the assay media. Cells were harvested on day 3 by the addition of 1× cell lysis buffer (Ambion cat #8721). The replicon RNA level was measured using real time PCR (Taqman assay). The amplicon was located in 5B. The PCR primers were: 5B.2F, ATGGACAGGCGCCCTGA; 5B.2R, […]; the probe sequence was FAM-labeled CACGCCATGCGCTGCGG. GAPDH RNA was used as endogenous control and was amplified in the same reaction as NS5B (multiplex PCR) using primers and VIC-labeled probe recommended by the manufacturer (PE Applied Biosystem). The real-time RT-PCR reactions were run on ABI PRISM 7900HT Sequence Detection System using the following program: 48° C. for 30 min, 95° C. for 10 min, 40 cycles of 95° C. for 15 sec, 60° C. for 1 min. The ACT values (CT5B-CTGAPDH) were plotted against the concentration of test compound and fitted to the sigmoid dose-response model using XLfit4 (MDL). EC50 was defined as the concentration of inhibitor necessary to achieve ΔCT=1 over the projected baseline; EC90 the concentration necessary to achieve […] over the baseline. Alternatively, to quantitate the absolute amount of replicon RNA, a standard curve was established by including serially diluted T7 transcripts of replicon RNA in the Taqman assay. All Taqman reagents were from PE Applied Biosystems. Such an assay procedure was described in detail in e.g. Malcolm et al., Antimicrobial Agents and Chemotherapy 50: 1013-1020 (2006).
HCV Replicon assay data for selected Compounds of Formula (I) is provided below in Table 3, wherein the compound numbers correspond to the compound numbering set forth in the above specification. The data is designated as follows: “A” for EC50 values less than 1.0 micromolar (μM), “B” for EC50 values between 1.0 and 10.0 μM and “C” for EC50 values greater than 10.0 μM.

T1 sequence (P26663 2420-2989): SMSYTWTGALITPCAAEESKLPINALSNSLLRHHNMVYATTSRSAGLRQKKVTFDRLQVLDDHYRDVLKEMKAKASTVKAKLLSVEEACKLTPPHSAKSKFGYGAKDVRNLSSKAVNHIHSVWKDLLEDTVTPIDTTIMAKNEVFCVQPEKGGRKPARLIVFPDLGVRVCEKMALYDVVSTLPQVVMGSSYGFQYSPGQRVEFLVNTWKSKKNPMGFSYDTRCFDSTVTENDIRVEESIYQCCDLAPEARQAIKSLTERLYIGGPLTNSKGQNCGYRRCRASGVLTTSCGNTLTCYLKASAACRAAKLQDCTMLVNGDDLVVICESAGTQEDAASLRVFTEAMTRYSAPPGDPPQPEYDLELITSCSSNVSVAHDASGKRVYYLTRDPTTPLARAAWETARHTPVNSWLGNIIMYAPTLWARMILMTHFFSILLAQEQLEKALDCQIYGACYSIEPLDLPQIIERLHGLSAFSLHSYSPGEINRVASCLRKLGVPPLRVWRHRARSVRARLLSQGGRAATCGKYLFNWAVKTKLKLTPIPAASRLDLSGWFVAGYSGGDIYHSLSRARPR

Regarding `Nc1cc(Cn2c(C(=O)NS(=O)(=O)c3ccc(O)cc3)c(-c3ccc[nH]c3=O)c3c4ccccc4ccc32)ccn1` [Compound 15], the IC50 (commonly the concentration that gives 50% inhibition) in test [1] fell in the range of 0.025 to 0.1 µM. Besides, the EC50 (as a rule, the concentration needed to bring the measured effect to its halfway point) in test [2] fell in the range of 1 to 10 µM.

With `O=C(O)c1c(-c2ccc[nH]c2=O)c2c3ccccc3c(F)cc2n1Cc1cc([N+](=O)[O-])ccc1F` [Compound 27], the half-maximal inhibitory concentration (IC50) in test [1] was in the range of 0.025 to 0.1 µM. The molecule also showed an EC50 in test [2] of less than 1 µM. The matching figures for `Nc1ccccc1Cn1c(C(=O)O)c(-c2ccccc2F)c2c3ccccc3ccc21` [Compound 1]: more than 0.1 µM and more than 10 µM.

Take `Nc1cc(Cn2c(C(=O)O)c(-c3ccc[nH]c3=O)c3c4ccccc4ccc32)ccn1` [Compound 4]: the IC50 in test [1] is more than 0.1 µM. Also, the 50% effective concentration (EC50) in test [2] lay in the range of 1 to 10 µM.

In the case of `O=C(O)c1c(-c2ccc[nH]c2=O)c2c3c(ccc2n1Cc1cc(F)ccc1F)CCCO3` [Compound 25], in test [1], the IC50 was less than 0.025 µM. The EC50 in test [2] was less than 1 µM. Take `O=C(O)c1c(-c2ccc[nH]c2=O)c2c3c(ccc2n1Cc1ccccc1F)OCCO3` [Compound 23]: in test [1], the IC50 is less than 0.025 µM. Besides, the EC50 in test [2] fell in the range of 1 to 10 µM. The matching figures for `O=C(NS(=O)(=O)C1CC1)c1c(-c2ccc[nH]c2=O)c2c3c(ccc2n1Cc1ccccc1F)CCCO3` [Compound 30]: less than 0.025 µM and less than 1 µM. On the same counts, the results for `O=C(O)c1c(-c2ccc[nH]c2=O)c2c3ncccc3ccc2n1Cc1cc(F)ccc1F` [Compound 17] are 0.025 to 0.1 µM and 1 to 10 µM.

Consider `CS(=O)(=O)NC(=O)c1c(-c2ccc[nH]c2=O)c2c3c(ccc2n1Cc1ccccc1F)OCCO3` [Compound 28], for which the IC50 in test [1] was less than 0.025 µM. Moreover, in test [2], the EC50 was less than 1 µM. The matching figures for `O=C(O)c1c(-c2ccc[nH]c2=O)c2c3ccccc3c(F)cc2n1Cc1ccccc1F` [Compound 24]: 0.025 to 0.1 µM and 1 to 10 µM.

Turning to `CS(=O)(=O)NC(=O)c1c(-c2ccc[nH]c2=O)c2c3ccccc3ccc2n1Cc1cccc(C(=O)O)c1` [Compound 12], the IC50 in test [1] is less than 0.025 µM. Besides, in test [2], the EC50 was more than 10 µM. The matching figures for `Nc1cc(Cn2c(C(=O)O)c(-c3ccccc3F)c3c4ccccc4ccc32)ccn1` [Compound 3]: more than 0.1 µM and 1 to 10 µM.

With `O=C(NS(=O)(=O)C1CC1)c1c(-c2ccc[nH]c2=O)c2c3ccccc3c(F)cc2n1Cc1ccccc1F` [Compound 31], the concentration for half-maximal inhibition (IC50) in test [1] is less than 0.025 µM. The molecule further yielded a half-maximal effective concentration (EC50) in test [2] of less than 1 µM. In turn, `CS(=O)(=O)Nc1cccc(S(=O)(=O)NC(=O)c2c(-c3ccc[nH]c3=O)c3c4ccccc4ccc3n2Cc2ccc(F)cc2F)c1` [Compound 16] registered an IC50 in test [1] of less than 0.025 µM. The molecule also returned a half-maximal effective concentration (EC50) in test [2] of less than 1 µM. On the same counts, the results for `CCS(=O)(=O)NC(=O)c1c(-c2ccc[nH]c2=O)c2c3ccccc3ccc2n1Cc1ccnc(N)c1` [Compound 14] are 0.025 to 0.1 µM and 1 to 10 µM. For the molecule `O=C(O)c1cccc(Cn2c(C(=O)O)c(-c3ccc[nH]c3=O)c3c4ccccc4ccc32)c1` [Compound 8], the IC50 in test [1] was more than 0.1 µM.

In test [1], `Nc1cc(Cn2c(C(=O)NS(=O)(=O)c3ccccc3)c(-c3ccc[nH]c3=O)c3c4ccccc4ccc32)ccn1` [Compound 11] displayed an IC50 of 0.025 to 0.1 µM. Also, the half-maximal effective concentration (EC50) in test [2] was in the range of 1 to 10 µM.

As for `CS(=O)(=O)NC(=O)c1c(-c2ccc[nH]c2=O)c2c3ccccc3ccc2n1Cc1ccnc(N)c1` [Compound 6], the half-inhibitory concentration (IC50) in test [1] lay in the range of 0.025 to 0.1 µM. For the same molecule, in test [2], the EC50 was more than 10 µM. On the same counts, the results for `O=C(NS(=O)(=O)C1CC1)c1c(-c2ccc[nH]c2=O)c2c3ccccc3c(F)cc2n1Cc1cc([N+](=O)[O-])ccc1F` [Compound 33] are less than 0.025 µM and less than 1 µM. On the same counts, the results for `O=C(NS(=O)(=O)C1CC1)c1c(-c2ccc[nH]c2=O)c2c3c(ccc2n1Cc1cc(F)ccc1F)CCCO3` [Compound 32] are less than 0.025 µM and less than 1 µM. Turning to `CC(C)(C)S(=O)(=O)NC(=O)c1c(-c2ccc[nH]c2=O)c2c3ccccc3ccc2n1Cc1ccnc(N)c1` [Compound 13], the IC50 in test [1] lay within 0.025 to 0.1 µM. Take `O=C(O)c1c(-c2ccc[nH]c2=O)c2c3ncccc3ccc2n1Cc1ccc(F)cc1F` [Compound 19]: the IC50 in test [1] is more than 0.1 µM. Still for that read-out and setting: the figure for `CS(=O)(=O)NC(=O)c1cccc(Cn2c(C(=O)NS(C)(=O)=O)c(-c3ccc[nH]c3=O)c3c4ccccc4ccc32)c1` [Compound 9] is 0.025 to 0.1 µM. For the molecule `O=C(O)c1cccc(Cn2c(C(=O)O)c(-c3ccccc3F)c3c4ccccc4ccc32)c1` [Compound 7], the IC50 in test [1] was more than 0.1 µM. This molecule also registered an EC50 in test [2] of more than 10 µM. On the same counts, the results for `COC(=O)c1cccc(Cn2c(C(=O)NS(C)(=O)=O)c(-c3ccc[nH]c3=O)c3c4ccccc4ccc32)c1` [Compound 10] are less than 0.025 µM and 1 to 10 µM. `O=C(O)c1c(-c2ccccc2F)c2c3ccccc3ccc2n1Cc1ccccc1` [Compound 2]: in test [1], the IC50 was more than 0.1 µM.

Regarding `CS(=O)(=O)NC(=O)c1c(-c2ccc[nH]c2=O)c2c3c(ccc2n1Cc1cc(F)ccc1F)CCCO3` [Compound 29], the IC50 in test [1] was less than 0.025 µM. Also, in test [2], the EC50 was less than 1 µM. On the same counts, the results for `O=C(O)c1c(-c2ccc[nH]c2=O)c2c3c(ccc2n1Cc1cc(F)ccc1F)OCCO3` [Compound 26] are less than 0.025 µM and less than 1 µM.

In the case of `O=C(O)c1c(-c2ccc[nH]c2=O)c2c3c(ccc2n1Cc1ccccc1F)CCCO3` [Compound 22], the IC50 in test [1] was less than 0.025 µM. Also, the EC50 in test [2] was less than 1 µM. On the same counts, the results for `CS(=O)(=O)NC(=O)c1c(-c2ccc[nH]c2=O)c2c3c(ccc2n1Cc1ccccc1F)CCCO3` [Compound 21] are less than 0.025 µM and less than 1 µM.

Take `O=C(O)c1c(-c2ccc[nH]c2=O)c2c3ncccc3ccc2n1Cc1ccccc1F` [Compound 18]: the IC50 in test [1] is more than 0.1 µM. In test [2], the EC50 lay in the range of 1 to 10 µM. The matching figures for `Nc1cc(Cn2c(C(=O)O)c(-c3ccccc3F)c3c4ccccc4ccc32)ncn1` [Compound 5]: more than 0.1 µM and more than 10 µM.

`CS(=O)(=O)NC(=O)c1c(-c2ccc[nH]c2=O)c2c3c(ccc2n1Cc1cc(F)ccc1F)OCCO3` [Compound 20] had an IC50 in test [1] of less than 0.025 µM. This molecule also gave an EC50 in test [2] of less than 1 µM.
